{
  "source": "patent US20240285616A1",
  "about": "“THERAPEUTIC TREATMENT OF CHROMATINOPATHIES” (UNIVERSITA' DEGLI STUDI DI TRENTO, priority 2020, published 2024)",
  "key": {"MLL4^Q4092X MSCs [1]": {"system": "MLL4^Q4092X MSCs", "experiment": "H3K27me3 level and PcG condensate clustering after HDAC inhibitor treatment", "assay_type": "cell-based, human", "method": "(§1) For immunofluorescence assays, cells were seeded on coverslips coated with 0.1% gelatin (Sigma Aldrich #G1393). When needed, cells where fixed with 4% paraformaldeide for […] at 4° C. Coverslips were processed as described: permeabilization and blocking with PBS/1% BSA/5% goat serum/0.5% Triton X-100 (blocking solution) for 1 hour at room temperature, followed by incubation with primary antibody (diluted in the blocking solution) for 2 hours at RT (or overnight at 4° C., depending on the used primary antibody), 3-5 washes in PBS and incubation with secondary antibodies (diluted in the blocking solution), DRAQ5 for nuclear staining and phalloidin-TRITC for 1 h at room temperature. Images were acquired using a Leica TCS SP5 confocal microscope with HCX PL APO 63×/1.40 objective. Confocal z stacks were acquired with sections of 0.5 μm. In cases where image analysis was performed, image acquisition settings were kept constant.\nIn order to automatically detect and quantify PcG and TrxG complex proteins in fluorescence cell image z-stacks, the inventors developed an algorithm that implements a method derived from (Gregoretti et al., 2016) with variants and adaptations. The algorithm performs the 2D segmentation of cell nuclei and the detection of Protein Bodies (PBs) for each slice of the stack, followed by the 3D reconstruction and identification of nuclei and PBs. […]"}, "MLL4^Q4092X MSCs [2]": {"system": "MLL4^Q4092X MSCs", "experiment": "Nuclear morphology, chromatin compaction and Lamin A/C after HDAC inhibitor treatment", "assay_type": "cell-based, human", "method": "as §1\nConfocal imaging data analyses were performed using Image J software. For 2D/3D analysis RDAQ5 DNA dye was used to identify the nucleus and define the ROI. Then the fluorescence intensity and physical parameters were determined. For the measure of volume and flatness the inventors performed a 3D analyses using the “3D plugin 596 suite”, an Image J plugin."}, "MLL4^Q4092X MSCs [3]": {"system": "MLL4^Q4092X MSCs", "experiment": "DNA damage response in MSCs after ATR inhibition (immunofluorescence)", "assay_type": "cell-based, human", "settings": "MLL4^Q4092X MSCs treated with ATR inhibitor", "method": "as §1"}, "MLL4^Q4092X MSCs [4]": {"system": "MLL4^Q4092X MSCs", "experiment": "Nuclear to cytosolic localization of YAP/TAZ by immunofluorescence", "assay_type": "cell-based, human", "settings": "sparse condition", "method": "Cell lines used in this study include NIH 3T3 (ATCC), HEK293T (ATCC), human primary fibroblasts derived from either healthy of Kabuki patients (Genomic and Genetic Disorders Biobank) and hTERT-immortalized human adipose-derived MSCs. Primary fibroblasts, NIH3T3 and HEK293T were maintained at 37° C. and 5% CO2 in DMEM medium supplemented with 10% Fetal Bovine Serum (Euroclone #ECS0180L), while MSCs were cultured in 1:1 DMEM/F-12 medium (Gibco #11320-074) supplemented with 10% Fetal Bovine Serum (Euroclone #ECS0180L).\nFor immunofluorescence assays, cells were seeded on coverslips coated with 0.1% gelatin (Sigma Aldrich #G1393). When needed, cells where fixed with 4% paraformaldeide for minutes at 4° C. […]\nTo quantify the nuclear to cytosolic localization of YAP-TAZ, the inventors adapted previously published MATLAB routines (Zambrano et al., 2016). […]\nTo estimate the average cytosolic intensity per cell, a ring of 30 pixels width (approximately 7 microns) around each segmented nuclei was found. […] The inventors then calculated for each cell the Nuclear to Cytosolic Intensity (NCI) as the ratio of the background corrected nuclear and cytosolic average YAP-TAZ intensity."}, "MLL4^Q4092X MSCs [5]": {"system": "MLL4^Q4092X MSCs", "experiment": "Gene expression profiling (RNA-seq) of MSCs after VE-822 treatment", "assay_type": "cell-based, human", "settings": "8 and 24 hours after ATR inhibition", "method": "WT and MLL^4Q4092X MSCs were seeded as sparse (5000 cells/cm^2) condition and collected 48 h after plating, either untreated or at 8 and 24 hours after ATR inhibition (VE-822 treatment) (medchem express #HY-13902/cs-1861). Cells were directly lysed on plates with TRIzol (Thermo Fisher cat. #15596026), and total RNAs were extracted according to the manufacturer's instructions.\nContaminating genomic DNA was removed by DNase (Qiagen 843 cat. #79254) digestion. RNA quality and concentration were assessed using the 2100 Bioanalyzer (Agilent cat. #G2939BA) and the Qubit fluorometer (Thermo Fisher cat. #Q33226), respectively. 3′-RNA-seq libraries were prepared by using the QuantSeq 3′ mRNA-Seq Library Prep Kit FWD for Illumina (Lexogen cat. #015.24) and starting from 500 ng of total RNA. Libraries were sequenced as single reads of 50 bp with the Illumina HiSeq2500. Three independent biological replicates were performed for each cell line and time point and sequenced as independent libraries.\nRaw reads from fastq files were first checked for their quality using FastQC and trimmed using Trimmomatic (Bolger et al., 2014). Trimmed reads were aligned to the reference human genome assembly hg38/GRCh38 using STAR with default parameters. […] For annotation of the reads to the genome, HOMER was employed with the following command ‘analyzeRepeats.pl rna hg38-count 3utr-rpkm’. […]"}, "Kmt2d morphants": {"system": "Kmt2d morphants", "assay_type": "in vivo", "settings": "Kmt2d morphant medaka embryos grown in 0.15 μM VE822", "method": "(§2) The Cab-strain of wt medaka fish (Oryzias latipes) was maintained following standard conditions (i.e., 12 h/12 h dark/light conditions at 27° C.). Embryos were staged according to the method proposed by Iwamatsu. All studies on fish were conducted in strict accordance with the institutional guidelines for animal research and approved by the Italian Ministry of Health: Department of Public Health, Animal Health, Nutrition, and Food Safety.\n(§3) The available medaka olKmt2d (ENSORLT00000009505.1) genomic sequences were retrieved from a public database (UCSC Genome Browser, http://genome.ucsc.edu/) from human KMT2D (NM_003482.3) transcript. A morpholino (Mo: Gene Tools LLC, Oregon, USA) was designed against the ATG initiation codon within the 5′ untranslated region of the medaka ortholog of the (MO-Kmt2d: 5′-[…]-3′) of the medaka orthologous of the KMT2D gene. The specificity and inhibitory efficiencies of morpholino was determined as previously described (Conte et al., 2015). MO-Kmt2d was injected at 0.015 mM concentration into one blastomere at the one/two-cell stage. Off-target effects of the morpholino injections were excluded by repeated experiments with control morpholino or by co-injection with a p53 morpholino. For the drug treatment, chorions from injected and control embryos were removed with the hatching enzyme at St32. […]"}, "MLL4^Q4092X MSCs [6]": {"system": "MLL4^Q4092X MSCs", "experiment": "Chondrocyte micromass differentiation of MSCs (Alcian blue)", "assay_type": "cell-based, human", "settings": "in vitro", "method": "For chondrocyte micromass culture, a cell solution of 1.6× 10^7 viable cells/mL was produced. Micromass cultures were generated by seeding 5-μL droplets of cell solution. After cultivating micromass cultures for 2 hours under high humidity conditions, MSCs medium was added. The day after, the medium was changed with chondrogenesis medium (Gibco #A10069-01) supplemented with Stem-Pro Chondrogenesis supplement (Gibco #10064-01). For complete differentiation, cells were maintained in culture for three weeks changing media regularly.\nTo detect chondrogenesis, cells were washed with PBS and fixed in 4% formaldehyde for 1 hr at RT and then washed with PBS. Cells were incubated with Alcian blue solution (1 g/L in 0.1 M HCl, Sigma-Aldrich #B8438) for 6 hrs at room temperature and then extensively washed with PBS. To measure Alcian blue deposition, dry wells were incubated with 1 mL of 6 N Guanidine HCl for 1 hour and then the absorbance was measured with a spectofotometer measured between 600 and 650 nm."}, "olKmt2d": {"system": "olKmt2d", "experiment": "Kmt2d morpholino injection in medaka embryos (in vivo model for KS)", "set-up": "species or system Oryzias latipes", "settings": "MO-Kmt2d injected at 0.015 mM, of 1,600 injected embryos, later developmental stages", "method": "as §2, §3"}},
  "note": "Read-outs that look alike come from different tables or passages of the source.",
  "data": [
    {"compound": "CC(/C=C/C(=O)NO)=C\\[C@@H](C)C(=O)c1ccc(N(C)C)cc1", "note": "[TSA]", "values": [
      {"measurement": "H3K27me3 level", "setting": "MLL4^Q4092X MSCs [1]", "value": "reduced"},
      {"measurement": "clustering of PcG condensates", "setting": "MLL4^Q4092X MSCs [1]", "value": "reduced"},
      {"measurement": "chromatin organization and nuclear architecture", "setting": "MLL4^Q4092X MSCs [2]", "value": "rescued the altered chromatin organization and nuclear architecture"},
      {"measurement": "nuclear morphology and structure (relative abundance of Lamin A/C)", "setting": "MLL4^Q4092X MSCs [2]", "value": "sufficient to re-establish proper nuclear morphology and structure"}
    ]},
    {"compound": "CNCc1ccc(-c2cc(-c3nc(-c4ccc(S(=O)(=O)C(C)C)cc4)cnc3N)on2)cc1", "note": "[VE-822, BERZOSERTIB]", "values": [
      {"measurement": "DNA damage response", "setting": "MLL4^Q4092X MSCs [3]", "value": "without affecting DNA damage response"},
      {"measurement": "YAP/TAZ nuclear localization (mechanical properties of MSCs)", "setting": "MLL4^Q4092X MSCs [4]", "value": "restored YAP/TAZ nuclear localization"},
      {"measurement": "YAP/TAZ nuclear localization (mechanical properties of MSCs)", "setting": "MLL4^Q4092X MSCs [4]; listed as VX-970", "value": "sufficient to restore the mechanical properties"},
      {"measurement": "expression of a subset of ATR responsive genes (architectural chromatin genes)", "setting": "MLL4^Q4092X MSCs [5]", "value": "rescued"},
      {"measurement": "chondrogenic and skeleton defects, head morphogenesis", "setting": "Kmt2d morphants; listed as ATR inhibitor", "value": "sufficient to restore the chondrogenic and skeleton defects"},
      {"measurement": "chondrogenic and skeleton defects, head morphogenesis", "setting": "Kmt2d morphants; listed as VX-970", "value": "sufficient to completely recover the chondrogenic and osteogenic defects"},
      {"measurement": "chondrogenic differentiation potential", "setting": "MLL4^Q4092X MSCs [6]; listed as ATR inhibitor", "value": "partially rescued"},
      {"measurement": "chondrogenic differentiation potential", "setting": "MLL4^Q4092X MSCs [6]; listed as VX-970", "value": "sufficient to abolish the differentiation defects"}
    ]},
    {"compound": "MO-Kmt2d: morpholino against the ATG initiation codon of medaka Kmt2d, 5′-CCCTGCTGCTGCTTTGATCTTTTTG-3′ (all phosphorodiamidate morpholino (PMO))", "values": [
      {"measurement": "embryos with morphological cranio-facial anomalies", "setting": "olKmt2d", "value": "73±5", "unit": "%"}
    ]}
  ]
}
